According to patent EP4516108A1, “METHOD FOR PRESERVING A BAKERY PRODUCT USING CHITOSAN AS INGREDIENT” (Mauri Technology B.V., priority 2023, dated 2025):

Columns and labels:
A. niger = assay: Accelerated shelf-life testing (ASLT): time of appearance (TOA) of mould on inoculated breadcrumbs
Method: Breads were made by mixing the dough ingredients from Table 1. The wt.% for several ingredients are given based on flour weight (Flour Weight Based, FWB). For the prepared recipes the difference with total dry weight is insubstantial. The following breads were prepared: a control without any preservatives, a reference containing 0.3% flour weight based (FWB) calcium propionate (CalPro), and a bread containing 1% chitosan (KitoZyme, Belgium) with number average MW of 15 kDa and degree of deacetylation (DDA) of 70%. […] Ingredients were mixed using a spiral mixer for 10 minutes. Afterwards the dough for each trial was divided into three pieces of 520 g, rounded manually, and placed into bread tins. The dough pieces were placed in a proofing cabinet to rise at 40 °C and 80% relative humidity until they reach similar height (fermentation time between 60-70 min). The breads were baked for 22 minutes in a deck oven at 260 (bottom) and 230 (top) °C.
Following baking, the breads were cooled in a HEPA-filtered chamber for 90 min. One bread was used for pH measurement and two breads were subjected to ASLT.
To perform ASLT, the remaining two breads were sliced to 13 mm slices. The crumb (inner part of breads) of three random slices from each bread were cut out using a cookie cutter (3.2 cm diameter) and placed in sterile 6-well plates (2x breads × 3 slices). Two 6-well plates were prepared per bread type. Each bread piece in a 6-well plate was inoculated with 3 aliquots of ±500 spores (20 pL) of either A. niger or P. paneum. Therefore, 18 spots of each mould were inoculated per trial (6 bread piece × 3 aliquots). Freeze-dried spores were used in all experiments. The inoculated breads incubated at room temperature of around 21 °C untill visible mould appearance. The appearance of the moulds was imaged by taking photographs. The images were inspected visually, and the TOA was defined as mould appearance in hours after mould inoculation.
Due to limited availability of the high MW chitosan samples, ASLT was performed at small scale in bread rolls. […]

P. paneum = assay: Accelerated shelf-life testing (ASLT): time of appearance (TOA) and growth pattern of mould on inoculated breadcrumbs; type: cell-based, Penicillium paneum; conditions: Example 1, tin breads, ±500 spores, around 21 °C; CalPro 0.3% FWB, chitosan 1% FWB (about 1 wt.%)
[1] = cited from earlier work

Row | Structure (SMILES) | effectiveness against A. niger, CalPro compared to chitosan (A. niger; CalPro 0.3% FWB vs chitosan 1% FWB) | TOA of A. niger improved compared to control without preservative (A. niger; CalPro 0.3% FWB, FWF 0.78% FWB, chitosan >0.5 wt.%, alone or in combination) | increased TOA of A. niger compared to control bread without preservatives (A. niger; Example 1, tin breads, ±500 spores, around 21 °C, CalPro 0.3% FWB, chitosan 1% FWB (about 1 wt.%)) [%] | increased TOA of P. paneum compared to control bread without preservatives (P. paneum) [%] | pKa [1]
1 | CCC(=O)[O-].CCC(=O)[O-].[Ca+2] [CalPro, calcium propionate] | more effective | approximately 50% | 80 | 17 | –
2 | CC(O)C(=O)O (stereo not drawn) [lactic acid] | – | – | – | – | about 3.85
3 | C/C=C/C=C/C(=O)O [sorbic acid] | – | – | – | – | about 4.76
